Source: the NIST ThermoML archive (doi:10.1016/j.jct.2007.03.007)
± gives the expanded uncertainty stated by the source.

Assays:
[1] = Liquid; for mass density: 101.33 kPa
[2] = refractive index (Na D-line) (dimensionless); settings: 101.33 kPa, Liquid, Standard Abbe refractometry
[3] = 298.15 K, Vibrating tube method

Compound: CC#N [acetonitrile]
- mass density ([1]; 298.15 K): 776.5 ± 2 kg/m3
- vapor or sublimation pressure ([1]; 352.15 K): 95.5 ± 4 kPa
- vapor or sublimation pressure ([1]; 352.55 K): 95.5 ± 4 kPa
- refractive index ([2]; 298.15 K): 1.3416 ± 0.0008

Compound: Brc1ccccc1 [bromobenzene]
- mass density [1, 3]: 1488.3 ± 2 kg/m3
- vapor or sublimation pressure ([1]; 427.05 K): 95.5 ± 4 kPa
- refractive index ([2]; 298.15 K): 1.5571 ± 0.0008

Compound: CC(C)O [propan-2-ol]
- mass density [1, 3]: 781.3 ± 2 kg/m3
- vapor or sublimation pressure ([1]; 354.05 K): 95.5 ± 4 kPa
- refractive index ([2]; 298.15 K): 1.3751 ± 0.0008

Compound: CC(=O)CC(C)=O [2,4-pentanedione]
- mass density [1, 3]: 972 ± 2 kg/m3
- vapor or sublimation pressure ([1]; 409.35 K): 95.5 ± 4 kPa
- refractive index ([2]; 293.15 K): 1.4511 ± 0.0008

Compound: COC(C)(C)C [2-methoxy-2-methylpropane]
- mass density ([1]; 303.15 K, Vibrating tube method): 742 ± 2 kg/m3
- vapor or sublimation pressure ([1]; 326.45 K): 95.5 ± 4 kPa
- refractive index ([2]; 293.15 K): 1.369 ± 0.0008

Compound: CCO[Si](OCC)(OCC)OCC [tetraethoxysilane]
- mass density [1, 3]: 933.4 ± 2 kg/m3
- vapor or sublimation pressure ([1]; 439.55 K): 95.5 ± 4 kPa
- refractive index ([2]; 298.15 K): 1.3825 ± 0.0008

Compound: COc1ccccc1 [anisole]
- mass density [1, 3]: 989.3 ± 2 kg/m3
- vapor or sublimation pressure ([1]; 424.65 K): 95.5 ± 4 kPa
- refractive index ([2]; 298.15 K): 1.5142 ± 0.0008
